Data: patent US20260266848A1, “COMPOSITIONS AND METHODS FOR DIAGNOSING AND TREATING DYSTONIA” (Duke University, priority 2023, published 2026)

Tested on: DYT-TOR1A MEF EVs
Assay: Quantitative LC-MS/MS proteomics of EVs from drug-treated DYT-TOR1A MEF cultures (ritonavir, salubrinal)
Assay type: cell-based, mouse
Design: key to RTV Corrective Direction / RTV Corrective Direction, Grwd1 / RTV Corrective Direction, Srrm2 / RTV Corrective Direction, Rbm17 / RTV Corrective Direction, Dcaf8 / RTV Corrective Direction, Edil3 / RTV Corrective Direction, Timp3 / RTV Corrective Direction, Heatr3 / RTV Corrective Direction, Brd4 / RTV Corrective Direction, P3h4 / RTV Corrective Direction, Pacsin3 / RTV Corrective Direction, Naa50 / RTV Corrective Direction, Lpar6 / RTV Corrective Direction, Ndrg1 / RTV Corrective Direction, Kntc1 / RTV Corrective Direction, Cdk11b / RTV Corrective Direction, Sumo1 / RTV Corrective Direction, Lsm4 / RTV Corrective Direction, Hmga2 / RTV Corrective Direction, Cstf1 / RTV Corrective Direction, Tes / RTV Corrective Direction, Sbno1 / RTV Corrective Direction, Unc119b / RTV Corrective Direction, Cfdp1 / RTV Corrective Direction, Sec61b: YES = protein abundance effect opposite to DYT/WT

SMILES: CC(C)c1nc(CN(C)C(=O)N[C@H](C(=O)N[C@@H](Cc2ccccc2)C[C@H](O)[C@H](Cc2ccccc2)NC(=O)OCc2cncs2)C(C)C)cs1 [ritonavir]
- Absolute Cohen's d Sum (Geno + RTV), Brd4 (EV protein Brd4 (Q9ESU6)): 6.97
- DYT + RTV/DYT Cohen's d, Brd4 (EV protein Brd4 (Q9ESU6)): 3.33
- RTV Corrective Direction, Brd4 (EV protein Brd4 (Q9ESU6), DYT + RTV vs DYT): YES
- Absolute Cohen's d Sum (Geno + RTV), Cdk11b (EV protein Cdk11b (P24788)): 6.07
- DYT + RTV/DYT Cohen's d, Cdk11b (EV protein Cdk11b (P24788)): 2.84
- RTV Corrective Direction, Cdk11b (EV protein Cdk11b (P24788), DYT + RTV vs DYT): YES
- Absolute Cohen's d Sum (Geno + RTV), Cfdp1 (EV protein Cfdp1 (O88271)): 4.50
- DYT + RTV/DYT Cohen's d, Cfdp1 (EV protein Cfdp1 (O88271)): 1.87
- RTV Corrective Direction, Cfdp1 (EV protein Cfdp1 (O88271), DYT + RTV vs DYT): YES
- Absolute Cohen's d Sum (Geno + RTV), Cstf1 (EV protein Cstf1 (Q99LC2)): 4.79
- DYT + RTV/DYT Cohen's d, Cstf1 (EV protein Cstf1 (Q99LC2)): 1.81
- RTV Corrective Direction, Cstf1 (EV protein Cstf1 (Q99LC2), DYT + RTV vs DYT): YES
- Absolute Cohen's d Sum (Geno + RTV), Ctdsp1 (EV protein Ctdsp1 (P58466)): 9.37
- DYT + RTV/DYT Cohen's d, Ctdsp1 (EV protein Ctdsp1 (P58466)): −0.28
- DYT + RTV/DYT Cohen's d, Dcaf8 (EV protein Dcaf8): 3.49
- Absolute Cohen's d Sum (Geno + RTV), Dcaf8 (EV protein Dcaf8 (Q8N7N5)): 7.70
- RTV Corrective Direction, Dcaf8 (EV protein Dcaf8 (Q8N7N5), DYT + RTV vs DYT): YES
- Absolute Cohen's d Sum (Geno + RTV), Dnajc7 (EV protein Dnajc7 (Q9QYI3)): 4.50
- DYT + RTV/DYT Cohen's d, Dnajc7 (EV protein Dnajc7 (Q9QYI3)): −0.67
- Absolute Cohen's d Sum (Geno + RTV), Drg1 (EV protein Drg1 (P32233)): 4.38
- DYT + RTV/DYT Cohen's d, Drg1 (EV protein Drg1 (P32233)): −1.06
- Absolute Cohen's d Sum (Geno + RTV), Edil3 (EV protein Edil3 (O35474)): 7.67
- DYT + RTV/DYT Cohen's d, Edil3 (EV protein Edil3 (O35474)): 4.51
- RTV Corrective Direction, Edil3 (EV protein Edil3 (O35474), DYT + RTV vs DYT): YES
- Absolute Cohen's d Sum (Geno + RTV), Grwd1 (EV protein Grwd1 (Q810D6)): 8.06
- DYT + RTV/DYT Cohen's d, Grwd1 (EV protein Grwd1 (Q810D6)): 2.65
- RTV Corrective Direction, Grwd1 (EV protein Grwd1 (Q810D6), DYT + RTV vs DYT): YES
- Absolute Cohen's d Sum (Geno + RTV), Heatr3 (EV protein Heatr3 (Q8BQM4)): 7.08
- DYT + RTV/DYT Cohen's d, Heatr3 (EV protein Heatr3 (Q8BQM4)): 3.09
- RTV Corrective Direction, Heatr3 (EV protein Heatr3 (Q8BQM4), DYT + RTV vs DYT): YES
- Absolute Cohen's d Sum (Geno + RTV), Hmga2 (EV protein Hmga2 (P52927)): 5.34
- DYT + RTV/DYT Cohen's d, Hmga2 (EV protein Hmga2 (P52927)): 1.97
- RTV Corrective Direction, Hmga2 (EV protein Hmga2 (P52927), DYT + RTV vs DYT): YES
- Absolute Cohen's d Sum (Geno + RTV), Kntc1 (EV protein Kntc1 (Q8C3Y4)): 6.09
- DYT + RTV/DYT Cohen's d, Kntc1 (EV protein Kntc1 (Q8C3Y4)): 2.48
- RTV Corrective Direction, Kntc1 (EV protein Kntc1 (Q8C3Y4), DYT + RTV vs DYT): YES
- Absolute Cohen's d Sum (Geno + RTV), Lpar6 (EV protein Lpar6 (Q8BMC0)): 6.22
- DYT + RTV/DYT Cohen's d, Lpar6 (EV protein Lpar6 (Q8BMC0)): −3.03
- RTV Corrective Direction, Lpar6 (EV protein Lpar6 (Q8BMC0), DYT + RTV vs DYT): YES
- Absolute Cohen's d Sum (Geno + RTV), Lsm4 (EV protein Lsm4 (Q9QXA5)): 5.40
- DYT + RTV/DYT Cohen's d, Lsm4 (EV protein Lsm4 (Q9QXA5)): 2.49
- RTV Corrective Direction, Lsm4 (EV protein Lsm4 (Q9QXA5), DYT + RTV vs DYT): YES
- Absolute Cohen's d Sum (Geno + RTV), Maea (EV protein Maea (Q4VC33)): 3.96
- DYT + RTV/DYT Cohen's d, Maea (EV protein Maea (Q4VC33)): −0.37
- Absolute Cohen's d Sum (Geno + RTV), Myo1e (EV protein Myo1e (E9Q634)): 5.88
- DYT + RTV/DYT Cohen's d, Myo1e (EV protein Myo1e (E9Q634)): −1.46
- Absolute Cohen's d Sum (Geno + RTV), Naa50 (EV protein Naa50 (Q6PGB6)): 6.3
- DYT + RTV/DYT Cohen's d, Naa50 (EV protein Naa50 (Q6PGB6)): 1.96
- RTV Corrective Direction, Naa50 (EV protein Naa50 (Q6PGB6), DYT + RTV vs DYT): YES
- Absolute Cohen's d Sum (Geno + RTV), Ndrg1 (EV protein Ndrg1 (Q62433)): 6.19
- DYT + RTV/DYT Cohen's d, Ndrg1 (EV protein Ndrg1 (Q62433)): 2.70
- RTV Corrective Direction, Ndrg1 (EV protein Ndrg1 (Q62433), DYT + RTV vs DYT): YES
- Absolute Cohen's d Sum (Geno + RTV), P3h4 (EV protein P3h4 (Q8K2B0)): 6.88
- DYT + RTV/DYT Cohen's d, P3h4 (EV protein P3h4 (Q8K2B0)): 1.62
- RTV Corrective Direction, P3h4 (EV protein P3h4 (Q8K2B0), DYT + RTV vs DYT): YES
- Absolute Cohen's d Sum (Geno + RTV), Pacsin3 (EV protein Pacsin3 (Q99JB8)): 6.45
- DYT + RTV/DYT Cohen's d, Pacsin3 (EV protein Pacsin3 (Q99JB8)): −3.41
- RTV Corrective Direction, Pacsin3 (EV protein Pacsin3 (Q99JB8), DYT + RTV vs DYT): YES
- Absolute Cohen's d Sum (Geno + RTV), Pcdh19 (EV protein Pcdh19 (Q80TF3)): 7.74
- DYT + RTV/DYT Cohen's d, Pcdh19 (EV protein Pcdh19 (Q80TF3)): −0.30
- Absolute Cohen's d Sum (Geno + RTV), Plpp3 (EV protein Plpp3 (Q99JY8)): 4.97
- DYT + RTV/DYT Cohen's d, Plpp3 (EV protein Plpp3 (Q99JY8)): 0.51
- Absolute Cohen's d Sum (Geno + RTV), Rbm17 (EV protein Rbm17 (Q8JZX4)): 7.77
- DYT + RTV/DYT Cohen's d, Rbm17 (EV protein Rbm17 (Q8JZX4)): 2.38
- RTV Corrective Direction, Rbm17 (EV protein Rbm17 (Q8JZX4), DYT + RTV vs DYT): YES
- Absolute Cohen's d Sum (Geno + RTV), Sbno1 (EV protein Sbno1 (Q689Z5)): 4.67
- DYT + RTV/DYT Cohen's d, Sbno1 (EV protein Sbno1 (Q689Z5)): 1.29
- RTV Corrective Direction, Sbno1 (EV protein Sbno1 (Q689Z5), DYT + RTV vs DYT): YES
- Absolute Cohen's d Sum (Geno + RTV), Sec61b (EV protein Sec61b (Q9CQS8)): 3.57
- DYT + RTV/DYT Cohen's d, Sec61b (EV protein Sec61b (Q9CQS8)): 0.27
- RTV Corrective Direction, Sec61b (EV protein Sec61b (Q9CQS8), DYT + RTV vs DYT): YES
- Absolute Cohen's d Sum (Geno + RTV), Sh3bp4 (EV protein Sh3bp4 (Q921I6)): 4.75
- DYT + RTV/DYT Cohen's d, Sh3bp4 (EV protein Sh3bp4 (Q921I6)): −0.91
- Absolute Cohen's d Sum (Geno + RTV), Srrm2 (EV protein Srrm2 (Q8BTI8)): 7.87
- DYT + RTV/DYT Cohen's d, Srrm2 (EV protein Srrm2 (Q8BTI8)): 3.51
- RTV Corrective Direction, Srrm2 (EV protein Srrm2 (Q8BTI8), DYT + RTV vs DYT): YES
- Absolute Cohen's d Sum (Geno + RTV), Sumo1 (EV protein Sumo1 (P63166)): 5.99
- DYT + RTV/DYT Cohen's d, Sumo1 (EV protein Sumo1 (P63166)): 2.28
- RTV Corrective Direction, Sumo1 (EV protein Sumo1 (P63166), DYT + RTV vs DYT): YES
- Absolute Cohen's d Sum (Geno + RTV), Tes (EV protein Tes (P47226)): 4.69
- DYT + RTV/DYT Cohen's d, Tes (EV protein Tes (P47226)): 0.20
- RTV Corrective Direction, Tes (EV protein Tes (P47226), DYT + RTV vs DYT): YES
- Absolute Cohen's d Sum (Geno + RTV), Timp3 (EV protein Timp3 (P39876)): 7.42
- DYT + RTV/DYT Cohen's d, Timp3 (EV protein Timp3 (P39876)): −2.93
- RTV Corrective Direction, Timp3 (EV protein Timp3 (P39876), DYT + RTV vs DYT): YES
- Absolute Cohen's d Sum (Geno + RTV), Tspan7 (EV protein Tspan7 (Q62283)): 7.37
- DYT + RTV/DYT Cohen's d, Tspan7 (EV protein Tspan7 (Q62283)): −2.89
- Absolute Cohen's d Sum (Geno + RTV), Unc119b (EV protein Unc119b (Q8C4B4)): 4.63
- DYT + RTV/DYT Cohen's d, Unc119b (EV protein Unc119b (Q8C4B4)): 2.22
- RTV Corrective Direction, Unc119b (EV protein Unc119b (Q8C4B4), DYT + RTV vs DYT): YES
- Pearson's r between genotype and ritonavir effects on EV protein abundance (entire proteome, n=1974): −0.74
- Pearson's r between genotype and ritonavir effects on EV protein abundance (putative DYT biomarker subset, n=363): −0.78
- additional human plasma EV protein homologs modulated in a corrective direction in mouse DYT1 EV experiment (MEF), not reaching significance (p<0.05) (ritonavir): 687
- all EV proteins with log 2 fold change>0 (ritonavir 20 μM, 24 h): 1372/1974
- number of significant hits among 363 proteins relative to chance (α=0.05) (ritonavir 20 μM, 24 h): 12 times
- overall effect on the DYT-TOR1A MEF EV proteome (ritonavir 20 μM, 24 h): broad corrective effect
- significantly modified EV proteins with log 2 fold change>0 (ritonavir 20 μM, 24 h): 508/582
- overall effect on the DYT-TOR1A MEF EV proteome (ritonavir 20 μM, 24 h, listed as Ritonavir): proteome-wide corrective effects
- hierarchical clustering of EV samples on 363 genotype biomarker proteins (ritonavir-treated DYT-TOR1A EV samples): clustered more closely with WT than DYT-TOR1A samples
